# Test results from paper PMC10916352, “Safety Evaluation of a Prototypical Diazirine-Based Covalent Crosslinker and Molecular Adhesive” (International Journal of Toxicology, 2023).
# “And” between values parts separate entries of the source, which are not always exact repeats. Equal values may be shown once.
# Experiments:
# [1] = test system: Balb/c 3T3 fibroblasts (clone 31); assay: 3T3 Neutral Red uptake cytotoxicity and phototoxicity assay; conditions: for Corrected Mean OD540: 8 wells
# Experimental: (§1) The 3T3 Neutral Red uptake assay was used to evaluate the phototoxicity of BondLynx. The NRU assay makes use of Neutral Red dye, a weak cationic dye that penetrates the cell membrane by non-ionic passive diffusion and accumulates in lysosomes. Cytotoxicity of the test material is evaluated by measuring the OD540 to assess the uptake of Neutral Red dye.[28],[29] […] By measuring cytotoxicity in the absence vs presence of UV and visible light, the phototoxicity of the test material can be determined.[30],[31]
# (§2) Cells were routinely trypsinized and passaged, at least once weekly, with a split ratio 1:3 to 1:4 to achieve a near confluent culture.
# (§3) Stock solutions of both controls were freshly prepared on the day of testing. The vehicle control was 1% DMSO in EBSS for the positive control, EBSS for the negative control, and .5% ethanol in EBSS for BondLynx. BondLynx was dissolved in ethanol for testing. […] All controls and BondLynx were handled in the dark and tested in 8-fold.
# (§4) In preparation for testing, cultures of 3T3 fibroblasts were trypsinized and resuspended in culture medium. […] A total of six plates were prepared in this manner – two each for the positive control, the negative control, and BondLynx. Following incubation, the cell culture medium was removed, and the wells washed with DPBS (Dulbecco’s phosphate-buffered saline). A 200 μL aliquot of each dilution of the test compound (BondLynx or a control) was added the first eight columns, and the appropriate vehicle control was added to the last four columns. All plates were incubated an additional 60 min before irradiating one plate for each test compound (+Irr) in a solar simulator with a WG320 nm filter for 22 min (equivalent to 5 J/cm^2 UV-A), while the second plate for each test compound (–Irr) was kept in the dark at room temperature. Subsequently, the test solutions were removed from the plates, and the cells were washed once with DPBS and suspended in 200 μL of supplemented DMEM to incubate for an additional 20-24 h.
# (§5) Immediately following incubation, the confluency of each plate was visually assessed, and the culture medium was replaced with 100 μL of Neutral Red dye (50 μg/mL). The plates were incubated another 3.5 h before removing the dye, washing with 150 μL of DPBS, and shaking for 20-40 min in 150 μL Neutral Red destain solution (ethanol:acetic acid:distilled water, 50:1:49). The optical density at 540 nm was measured for each well and corrected by subtracting the appropriate blank.
# [2] = as above; conditions: mouse, Balb/c 3T3 fibroblasts (clone 31); for viability: Viability of cells over all tested concentrations, .316 to 1000 μg/mL
# Experimental: as §1, §2, §3, §4, §5
# [3] = In vitro skin corrosion test, MTT viability; conditions: human, EpiDerm Skin Model (reconstructed human epidermis)
# Experimental: (§7) The skin corrosion test was performed to assess the cytotoxic effects of BondLynx immediately following short-term exposure to the stratum corneum of the epidermis using an in vitro skin model.[32]–[34] Cytotoxicity to the skin model was expressed as the reduction of mitochondrial dehydrogenase activity measured by formazan production from 3-(4,5-dimethylthiazol-2-yl)-2,5-diphenyl tetrazolium bromide (MTT). […] BondLynx was checked for direct MTT reduction by incubating at least 50 mg of BondLynx with 1 mL MTT for 3 h to ensure that no blue/purple colour change or precipitate occurred. BondLynx was tested for colour interference by incubating at least 50 mg of BondLynx in water for 1 h and isopropanol for 2-3 h, centrifuging for 30 s at 16,000 g, and measuring the OD570 to ensure an optical density ≤.08 (after subtracting a Milli-Q water blank).
# (§8) Incubations were performed at 37.0-37.3°C, in an atmosphere with 77%-95% humidity containing 5.0 ± .5% CO2 in air unless otherwise stated. The positive control was 8.0 N aqueous potassium hydroxide (KOH) solution, and the negative control was Milli-Q water. BondLynx was applied directly to the test system as a solid and spread to match the size of the tissue. Tests were performed in duplicate.
# (§9) Skin tissue samples were refrigerated for 1 day upon receipt before placing in a six-well plate with .9 mL supplemented DMEM (just enough to reach the bottom of the tissue) 1 h before testing. A total of four samples were prepared per test item by applying 50 μL of the positive or negative control, or 25 μL of Milli-Q water (to moisten the tissue and ensure close contact) followed by 34.2-39.8 mg of BondLynx. Two samples of each test item were incubated for 3 min at room temperature, while the remaining samples were incubated for 1 h. After exposure, tissues were washed with phosphate buffered saline, dried carefully, and stored in 300 μL DMEM in a 24 well plate until the full six-well plate was dosed and rinsed.
# (§10) Cell viability after incubation was determined by replacing the DMEM with 300 μL MTT in supplemented DMEM (1 mg/mL) and incubating for 3 h. Tissues were then washed with phosphate buffer saline, and formazan was extracted with 2 mL isopropanol overnight. The amount of extracted formazan was measured in triplicate for each sample by the OD570.
# (§11) Optical density readings were corrected by subtracting the mean blank OD570. Cell viability was calculated as the percentage of the mean corrected OD570 for the test compound relative to the mean OD570 for the negative control (% Viability = ODtest/ODnegative control × 100%).
# [4] = test system: EpiDerm Skin Model (human-derived epidermal keratinocytes); assay: In vitro skin corrosion test, MTT viability; conditions: for OD570 / OD570 corrected: tissues A and B, triplicate readings
# Experimental: as §7, §8, §9, §10, §11
# [5] = In vitro skin irritation test, MTT viability; assay type: cell-based, human; conditions: human; 15 min exposure, 42 h post-incubation, relative to phosphate buffered saline; read-out: Cell Viability (%)
# Experimental: (§6) Tests were performed in triplicate. […] Following exposure, samples were rinsed with phosphate buffered saline until no test item remain, dried carefully, and placed in a new 2 mL well with pre-warmed Maintenance Medium to incubate for 42 h. After incubation, cell culture inserts were dried carefully, transferred into a 12-well plate prefilled with 2 mL MTT in phosphate buffered saline (.3 mg/mL), and incubated for 3 h. Tissue samples were then dried, and a biopsy punch was taken. The epidermis was separated from the collagen matrix, and both were extracted with 500 μL isopropanol and stored for 70 h refrigerated. The amount of extracted formazan was measured in duplicate for each sample by the OD570.
# [6] = test system: EPISKIN Small Model (human epidermis model); assay: In vitro skin irritation test, MTT viability; assay type: cell-based
# Experimental: as §6
compound,measurement,setting,value
"FC(F)(F)C1(c2ccc(C(c3ccc(C4(C(F)(F)F)N=N4)cc3)(C(F)(F)F)C(F)(F)F)cc2)N=N1 [BondLynx, 2,2-bis-[4-[3-(trifluoromethyl)-3H-diazirin-3-yl]phenyl]hexafluoropropane]",Phototoxicity classification,[1]; 3T3 NRU phototoxicity test,non-phototoxic
same,Corrected Mean OD540,"[1]; +Irr, 0.316 μg/mL",1.135
same,Corrected Mean OD540,"[1]; +Irr, 1 μg/mL",1.116
same,Corrected Mean OD540,"[1]; +Irr, 3.16 μg/mL",1.13
same,Corrected Mean OD540,"[1]; +Irr, 10 μg/mL",1.149
same,Corrected Mean OD540,"[1]; +Irr, 31.6 μg/mL",1.19
same,Corrected Mean OD540,"[1]; +Irr, 100 μg/mL",1.236
same,Corrected Mean OD540,"[1]; +Irr, 316 μg/mL",1.24
same,Corrected Mean OD540,"[1]; +Irr, 1000 μg/mL",1.18
same,"IC50 (50% inhibition of Neutral Red uptake), presence of irradiation","[1]; +Irr, 5 J/cm^2 UV-A",no IC50
same,Photo Irritation Factor (PIF),[1]; non-irradiated IC50 divided by irradiated IC50,no PIF could be calculated
same,Cytotoxicity,"[1]; presence and absence of UV-A, .316 to 1000 μg/mL",no cytotoxicity
same,"IC50 (50% inhibition of Neutral Red uptake), absence of irradiation",[1]; –Irr,no IC50
same,Corrected Mean OD540,"[1]; –Irr, 0.316 μg/mL",1.17
same,Corrected Mean OD540,"[1]; –Irr, 1 μg/mL",1.16
same,Corrected Mean OD540,"[1]; –Irr, 3.16 μg/mL",1.15
same,Corrected Mean OD540,"[1]; –Irr, 10 μg/mL",1.12
same,Corrected Mean OD540,"[1]; –Irr, 31.6 μg/mL",1.13
same,Corrected Mean OD540,"[1]; –Irr, 100 μg/mL",1.15
same,Corrected Mean OD540,"[1]; –Irr, 316 μg/mL",1.16
same,Corrected Mean OD540,"[1]; –Irr, 1000 μg/mL",1.07
same,"viability at 82 min, 0.316 μg/mL","[2]; Viability (%), +Irr",101%
same,"viability at 82 min, 1 μg/mL","[2]; Viability (%), +Irr",99.6%
same,"viability at 82 min, 3.16 μg/mL","[2]; Viability (%), +Irr",101%
same,"viability at 82 min, 10 μg/mL","[2]; Viability (%), +Irr",103%
same,"viability at 82 min, 31.6 μg/mL","[2]; Viability (%), +Irr",106%
same,viability at 100 μg/mL,"[2]; Viability (%), +Irr, 100 μg/mL",110%
same,"viability at 82 min, 316 μg/mL","[2]; Viability (%), +Irr",111%
same,"viability at 82 min, 1000 μg/mL","[2]; Viability (%), +Irr",105%
same,"viability at 82 min, 0.316 μg/mL","[2]; Viability (%), –Irr",102%
same,"viability at 82 min, 1 μg/mL","[2]; Viability (%), –Irr",101%
same,"viability at 82 min, 3.16 μg/mL","[2]; Viability (%), –Irr",100%
same,"viability at 82 min, 10 μg/mL","[2]; Viability (%), –Irr",97.4%
same,"viability at 82 min, 31.6 μg/mL","[2]; Viability (%), –Irr",98.3%
same,"viability at 82 min, 100 μg/mL","[2]; Viability (%), –Irr, 100 μg/mL",100%
same,"viability at 82 min, 316 μg/mL","[2]; Viability (%), –Irr",101%
same,"viability at 82 min, 1000 μg/mL","[2]; Viability (%), –Irr",93%
same,viability,[2]; Irr+,105 ± 4%
same,viability,[2]; Irr−,99 ± 3%
same,viability at 3 min,[3],101%
same,viability at 1 h,[3],95%
same,Mean ± SD (OD570 corrected),[4]; 3 min exposure,1.7 ± 0.1
same,OD570,[4]; 3 min exposure,1.8819 and 1.869 and 1.8445 and 1.7365 and 1.7069 and 1.7026
same,OD570 corrected,[4]; 3 min exposure,1.837 and 1.8241 and 1.7996 and 1.6916 and 1.662 and 1.6577
same,Mean ± SD (OD570 corrected),[4]; 1 h exposure,1.85 ± .09
same,OD570,[4]; 1 h exposure,1.9919 and 1.9396 and 1.9528 and 1.8727 and 1.8128 and 1.8033
same,OD570 corrected,[4]; 1 h exposure,1.947 and 1.8947 and 1.9079 and 1.8278 and 1.7679 and 1.7584
same,Skin corrosion classification,[4]; viability >50% after 3 min and >15% after 1 h,not corrosive
same,viability at 15 min,[5],106%
same,Mean ± SD (OD570 corrected),"[6]; 15 min exposure, 42 h post-incubation",1.019 ± .011
same,OD570,"[6]; 15 min exposure, 42 h post-incubation, tissues A-C, duplicate readings",1.0621 and 1.0517 and 1.0668 and 1.0420 and 1.0901 and 1.0602
same,Skin irritation classification,[6]; viability >50%,non-irritant
